Like-named read-outs stand apart in the source and are kept apart here.
Key:
in vivo = format: in vivo; conditions: both sexes, beagle, dog, in vivo, po
Method: Eighteen male and eighteen female beagle dogs were received from Ridglan Farms, Mt. Horeb, Wis. […] Each group consisted of four males and four females. All animals/sex/group were scheduled for the primary necropsy at the end of the 13-week treatment period.
The animals were observed twice daily for mortality and moribundity. Clinical examinations were performed daily at the time of dosing and approximately 1-2 and approximately 3 hours following dose administration. Detailed physical examinations were performed weekly. Clinical pathology evaluations (hematology, serum chemistry and urinalysis) were performed prior to the initiation of dose administration (study week-1) and prior to the scheduled necropsy (study week 13). Individual body weights were recorded weekly, beginning approximately two weeks prior to test article administration (study week-2). Mean body weights and mean body weight changes were calculated for each corresponding interval. Final body weights (fasted) were recorded prior to the scheduled necropsy. […] Gross lesions were also examined from the 2.0 and 6.0 mg/kg/day groups.

[1] = Toxicokinetic evaluation in rats; conditions: rat, in vivo
Method: For toxicokinetic evaluation, all animals were observed twice daily for mortality and moribundity. Blood samples were collected from three animals/sex/group at 0 (pre-dose), 1, 2, 4, 8 and 24 hours after dose administration on study days 0 and 87. All toxicokinetic animals were euthanized and discarded following the final blood collection (study day 88).

[2] = female, Crl:CD(SD)IGS BR (Sprague-Dawley), po, 60 mg/kg/day
[3] = female, Crl:CD(SD)IGS BR, po, 10 mg/kg/day
[4] = female, Crl:CD(SD)IGS BR, po, 25 mg/kg/day
[5] = male, Crl:CD(SD)IGS BR, po, 10 mg/kg/day
[6] = male, Crl:CD(SD)IGS BR, po, 25 mg/kg/day
[7] = male, Crl:CD(SD)IGS BR, po, 60 mg/kg/day

`Clc1ccc([C@]23CNCC2C3)cc1Cl` (single isomer, unassigned; (+)) [(+)-1-(3,4-dichlorophenyl)-3-azabicyclo[3.1.0]hexane] gave an NOAEL at 13 weeks (in vivo) of 6 mg/kg/day, an AUC(0-t) ([1]; Crl:CD(SD)IGS BR (Sprague-Dawley), male rats, 10 mg/kg/day oral, Day 87, read-out: AUC0-24 h) of 8130 ng·h/mL and an AUC(0-t) ([1]; Crl:CD(SD)IGS BR, female rats, 10 mg/kg/day oral, Day 87, read-out: AUC0-24 h) of 14400 ng·h/mL. It also gave an AUC0-24 h [1, 2] of 88137 ng·h/mL, an AUC(0-t) ([1]; female, Crl:CD(SD)IGS BR (Sprague-Dawley), po, 60 mg/kg/day, AUC0-24 h) of 54400 ng·h/mL and a Cmax [1, 2] of 6600 ng/mL. It also gave a Tmax [1, 2] of 2 h, an AUC(0-t) ([1]; female, Crl:CD(SD)IGS BR, po, 10 mg/kg/day, AUC0-24 h) of 10900 ng·h/mL and a Cmax [1, 3] of 1390 ng/mL. For the same compound, the Tmax [1, 3] was 1 h, the AUC0-24 h [1, 4] was 30205 ng·h/mL and the AUC(0-t) ([1]; female, Crl:CD(SD)IGS BR, po, 25 mg/kg/day, AUC0-24 h) was 31000 ng·h/mL. For the same compound, the Cmax [1, 4] was 2810 ng/mL, the Tmax [1, 4] was 2 h and the AUC(0-t) ([1]; male, Crl:CD(SD)IGS BR (Sprague-Dawley), po, 10 mg/kg/day, AUC0-24 h) was 5940 ng·h/mL. For the same compound, the Cmax [1, 5] was 863 ng/mL, the Tmax [1, 5] was 2 h and the AUC0-24 h [1, 6] was 21975 ng·h/mL. For the same compound, the AUC(0-t) ([1]; male, Crl:CD(SD)IGS BR, po, 25 mg/kg/day, AUC0-24 h) was 17400 ng·h/mL, the Cmax [1, 6] was 2360 ng/mL and the Tmax [1, 6] was 2 h. The AUC0-24 h [1, 7] was 60093 ng·h/mL, the AUC(0-t) ([1]; male, Crl:CD(SD)IGS BR, po, 60 mg/kg/day, AUC0-24 h) was 36300 ng·h/mL and the Cmax [1, 7] was 3680 ng/mL. The Tmax [1, 7] was 1 h.

Reference: patent US20070225351A1, “Methods and compositions for controlling body weight and appetite” (priority 2002, published 2007)
